Among the data in patent US20190389843A1, “PYRROLE mTORC INHIBITORS AND USES THEREOF” (Navitor Pharmaceuticals, Inc., priority 2016, published 2019) are IC50 values, retold here.

SMILES strings stand for the structures. Where only a bound is given, the exact number is not on record here.

Assay [1] has as its system pS6K1 in MCF7 (measure of mTORC1 activity). Put plainly: AlphaLISA Ultra pS6K1 assay. In kind it is cell-based. Particulars: Homo sapiens, MCF7, 2 h, MCF-7 cells, 2 hours compound incubation. On the procedure:
(§1) Assay Protocol: • 1. […] 12,000˜16,000 cells will be seeded in 36 μL medium per well. • 2. Change the culture medium with fresh medium and incubate for another 2 hours. • 3. Add 12 μL (4λ) compounds into the cell plate by HAMILTON. Final DMSO concentration is 0.5%. Incubate for 2 hours. • 4. Aspirate 38 μL by HAMILTON, 10 μL rest per well. • 5. Add 10 μL 2× lysis buffer using HAMILTON; total volume in wells is 20 μL. Allow cells to shake for 30 min. Cover plate by plastic foil and store plate at −80° C. up to analysis. • 6. […] Add 5 ul acceptor beads into assay plate and incubation for 2 hours • 8. Add 5 ul donor beads and incubation for 2 hours • 9. Count the plate by EnSpire Multimode Plate Reader

Assay [2] relates to pAKT in MCF7 (measure of mTORC2 activity). Nature of the assay: AlphaLISA Ultra pAKT assay. The class given is cell-based. The note with it: Homo sapiens, MCF7, 2 h, MCF-7 cells, 2 hours compound incubation. On the procedure: as §1, with “16,000˜20,000” for “12,000˜16,000”, “(4×)” for “(4λ)”
Background: Bead proximity is the source of the signal in Alpha formats.

For orientation: IC50 means the concentration needed to halve the response being measured. Read a high IC50 as weaker potency in that assay. With `Cc1c(CN2CCN(c3ncccc3Cl)CC2)cc(C(=O)N2CCN(c3ccc(F)cc3)C[C@@H]2C)n1C` [Example I-92, (S)-(4-((4-(3-chloropyridin-2-yl)piperazin-1-yl)methyl)-1,5-dimethyl-1H-pyrrol-2-yl)(4-(4-fluorophenyl)-2-methylpiperazin-1-yl)methanone], the IC50 in assay [1] was 10 to 1000 nM; in assay [2], greater than 1000 nM.

`Cn1cc(CN2CCN(c3ccccc3Cl)CC2)cc1C(=O)N1CCN(c2cccc(C#N)c2)CC1` [Example I-138, 3-(4-(4-((4-(2-chlorophenyl)piperazin-1-yl)methyl)-1-methyl-1H-pyrrole-2-carbonyl)piperazin-1-yl)benzonitrile]: the IC50 in assay [1] was 1000 to 3000 nM; in assay [2], greater than 3000 nM.

In the case of `Cc1c(CN2CCN(c3ncccc3Cl)CC2)cc(C(=O)N2CCN(c3cccc(C#N)c3)CC2)n1C` [Example I-79, 3-(4-(4-((4-(3-Chloropyridin-2-yl)piperazin-1-yl)methyl)-1,5-dimethyl-1H-pyrrole-2-carbonyl)piperazin-1-yl)benzonitrile], the IC50 in assay [1] is 10 to 1000 nM; in assay [2] it was greater than 3000 nM.

For the molecule `Cc1c(CN2CCN(c3ccccc3C#N)CC2)cc(C(=O)N2CCN(c3ccc(F)cc3)CC2)n1C` [Example I-55], the results for the IC50 in assay [1] and in assay [2] were 10 to 1000 nM and greater than 1000 nM, respectively.

Consider `Cc1c(CN2CCN(c3ccccc3C#N)CC2)cc(C(=O)N2CCN(c3ccccc3C#N)CC2)n1C` [Example I-23], for which the IC50 in assay [1] was 10 to 1000 nM; in assay [2] it was greater than 10000 nM.

As for `Cc1c(CN2CCN(c3ccccc3Cl)CC2)cc(C(=O)N2CCN(c3ccc(F)c(Cl)c3)CC2)n1C` [Example I-82, (4-(3-chloro-4-fluorophenyl)piperazin-1-yl)(4-((4-(2-chlorophenyl)piperazin-1-yl)methyl)-1,5-dimethyl-1H-pyrrol-2-yl)methanone], the IC50 in assay [1] is 1000 to 3000 nM; in assay [2], greater than 10000 nM.

For `Cn1cc(CNC2CCN(c3ccccc3Cl)CC2)cc1C(=O)N1CCN(c2ccc(F)cc2)CC1` [Example I-129], the values for the IC50 in assay [1] and in assay [2] were 1000 to 3000 nM and greater than 10000 nM, respectively.

Turning to `Cc1c(CN2CCN(c3ncccc3Cl)CC2)cc(C(=O)N2CCN(c3ccc(F)cc3)CC2)n1C` [Example I-80, (4-((4-(3-Chloropyridin-2-yl)piperazin-1-yl)methyl)-1,5-dimethyl-1H-pyrrol-2-yl)(4-(4-fluorophenyl)piperazin-1-yl)methanone], the IC50 in assay [1] is 10 to 1000 nM; in assay [2], greater than 3000 nM.

As for `Cc1c(CN2CCN(c3ccccc3C#N)CC2)cc(C(=O)N2CCN(c3oc(C4CC4)nc3C#N)CC2)n1C` [Example I-14], the results for the IC50 in assay [1] and in assay [2] were 10 to 1000 nM and greater than 10000 nM, respectively.

With `C[C@H]1CN(c2cc(F)cc(F)c2)CCN1C(=O)c1cc(CN2CCN(c3ccccc3Cl)CC2)cn1C` [Example I-94, (S)-(4-((4-(2-chlorophenyl)piperazin-1-yl)methyl)-1-methyl-1H-pyrrol-2-yl)(4-(3,5-difluorophenyl)-2-methylpiperazin-1-yl)methanone], the figures for the IC50 in assay [1] and in assay [2] were 10 to 1000 nM and greater than 5000 nM, respectively.

Consider `Cc1c(CN2C3CCC2CN(c2ccccc2C#N)C3)cc(C(=O)N2CCN(c3ccccn3)CC2)n1C` [Example I-52, 2-(8-((1,2-dimethyl-5-(4-(pyridin-2-yl)piperazine-1-carbonyl)-1H-pyrrol-3-yl)methyl)-3,8-diazabicyclo[3.2.1]octan-3-yl)benzonitrile], for which the IC50 in assay [1] is 10 to 1000 nM; in assay [2], greater than 10000 nM.

`C[C@H]1CN(c2cc(F)c(F)c(F)c2)CCN1C(=O)c1cc(CN2CCN(c3ccccc3Cl)CC2)cn1C` [Example I-88, (S)-(4-((4-(2-chlorophenyl)piperazin-1-yl)methyl)-1-methyl-1H-pyrrol-2-yl)(2-methyl-4-(3,4,5-trifluorophenyl)piperazin-1-yl)methanone]: the IC50 in assay [1] was 1000 to 3000 nM; in assay [2] it was greater than 10000 nM.

On to `Cc1c(CN2CCN(c3ccccc3Cl)CC2)cc(C(=O)N2CCN(c3cc(Cl)ccn3)CC2)n1C` [Example I-71], for which the IC50 in assay [1] was 10 to 1000 nM; in assay [2], greater than 3000 nM.

In the case of `Cc1c(CN2CCN(c3ccccc3Cl)CC2)cc(C(=O)N2CCN(c3ccc(F)c(C#N)c3)CC2)n1C` [Example I-105, 5-(4-(4-((4-(2-Chlorophenyl)piperazin-1-yl)methyl)-1,5-dimethyl-1H-pyrrole-2-carbonyl)piperazin-1-yl)-2-fluorobenzonitrile], the IC50 was 10 to 1000 nM in assay [1] and greater than 3000 nM in assay [2].

Consider `Cc1c(CN2CCN(c3ccccc3C#N)CC2)cc(C(=O)N2CCN(c3cccc(C#N)n3)CC2)n1C` [Example I-43], for which the IC50 in assay [1] is 10 to 1000 nM; in assay [2] it was greater than 3000 nM.

`Cc1c(CN2CCN(c3ccccc3Cl)CC2)cc(C(=O)N2CCN(c3cc(F)cc(F)c3)CC2)n1C` [Example I-96, (4-((4-(2-chlorophenyl)piperazin-1-yl)methyl)-1,5-dimethyl-1H-pyrrol-2-yl)(4-(3,5-difluorophenyl)piperazin-1-yl)methanone]: the IC50 in assay [1] was 10 to 1000 nM; in assay [2], greater than 3000 nM.

With `C[C@@H]1CN(c2ccccc2)CCN1C(=O)c1cc(CN2CCN(c3ccccc3Cl)CC2)cn1C` [Example I-137, (R)-(4-((4-(2-chlorophenyl)piperazin-1-yl)methyl)-1-methyl-1H-pyrrol-2-yl)(2-methyl-4-phenylpiperazin-1-yl)methanone], the IC50 in assay [1] is 3000 to 10000 nM; in assay [2], greater than 10000 nM.

As for `C[C@H]1CN(c2cccc(F)c2C#N)CCN1C(=O)c1cc(CN2CCN(c3ccccc3Cl)CC2)cn1C` [Example I-101, (S)-2-(4-(4-((4-(2-chlorophenyl)piperazin-1-yl)methyl)-1-methyl-1H-pyrrole-2-carbonyl)-3-methylpiperazin-1-yl)-6-fluorobenzonitrile], the figures for the IC50 in assay [1] and in assay [2] were 10 to 1000 nM and greater than 5000 nM, respectively.

In the case of `Cc1c(CN2CCN(c3ccccc3Cl)CC2)cc(C(=O)N2CCN(c3cc(F)c(F)c(F)c3)CC2)n1C` [Example I-111, (4-((4-(2-Chlorophenyl)piperazin-1-yl)methyl)-1,5-dimethyl-1H-pyrrol-2-yl)(4-(3,4,5-trifluorophenyl)piperazin-1-yl)methanone], the results for the IC50 in assay [1] and in assay [2] were 10 to 1000 nM and greater than 3000 nM, respectively.

As for `Cc1c(CN2CCN(c3ncccc3Cl)CC2)cc(C(=O)N2CCN(c3cccc(Cl)c3)CC2)n1C` [Example I-98, 1-({5-[4-(3-Chlorophenyl)piperazine-1-carbonyl]-1,2-dimethyl-1H-pyrrol-3-yl}methyl)-4-(3-chloropyridin-2-yl)piperazine], the values for the half-inhibitory concentration (IC50) in assay [1] and in assay [2] were 10 to 1000 nM and greater than 3000 nM, respectively.

Turning to `Cc1c(CN2CCN(c3ccccc3Cl)CC2)cc(C(=O)N2CCN(c3cc(F)c(F)c(F)c3)C[C@@H]2C)n1C` [Example I-89, (S)-(4-((4-(2-Chlorophenyl)piperazin-1-yl)methyl)-1,5-dimethyl-1H-pyrrol-2-yl)(2-methyl-4-(3,4,5-trifluorophenyl)piperazin-1-yl)methanone], the values for the IC50 in assay [1] and in assay [2] were 3000 to 10000 nM and greater than 10000 nM, respectively.

For `C[C@H]1CN(c2ccccc2C#N)CCN1C(=O)c1cc(CN2CCN(c3ccccc3C#N)CC2)cn1C` [Example I-58], the IC50 was 10 to 1000 nM in assay [1] and greater than 10000 nM in assay [2].

In the case of `Cc1c(CN2CCN(c3ccccc3Cl)CC2)cc(C(=O)N2CCN(c3ncccn3)C[C@@H]2C)n1C` [Example I-74, (S)-(4-((4-(2-chlorophenyl)piperazin-1-yl)methyl)-1,5-dimethyl-1H-pyrrol-2-yl)(2-methyl-4-(pyrimidin-2-yl)piperazin-1-yl)methanone], the values for the IC50 in assay [1] and in assay [2] were 1000 to 3000 nM and greater than 10000 nM, respectively.

Regarding `Cc1c(CN2CCN(c3ccccc3Cl)CC2)cc(C(=O)N2CCN(c3cccc(F)c3C#N)C[C@@H]2C)n1C` [Example I-102, (S)-2-(4-(4-((4-(2-chlorophenyl)piperazin-1-yl)methyl)-1,5-dimethyl-1H-pyrrole-2-carbonyl)-3-methylpiperazin-1-yl)-6-fluorobenzonitrile], the IC50 in assay [1] was 10 to 1000 nM; in assay [2] it was greater than 10000 nM.

Take `Cn1cc(CN2CCN(c3ncccc3Cl)CC2)cc1C(=O)N1CCN(c2ccccc2)CC1` [Example I-119, (4-((4-(3-chloropyridin-2-yl)piperazin-1-yl)methyl)-1-methyl-1H-pyrrol-2-yl)(4-phenylpiperazin-1-yl)methanone]: the figures for the IC50 in assay [1] and in assay [2] were 1000 to 3000 nM and greater than 3000 nM, respectively.

With `COCCn1cc(CN2CCN(c3ccccc3Cl)CC2)cc1C(=O)N1CCN(c2ccccc2F)CC1` [Example I-141], the IC50 in assay [1] is 3000 to 10000 nM; in assay [2], greater than 10000 nM.

For `Cc1nc(C#N)c(N2CCN(C(=O)c3cc(CN4CCN(c5ccccc5C#N)CC4)c(C)n3C)CC2)o1` [Example I-22], the IC50 in assay [1] was 1000 to 3000 nM; in assay [2] it was greater than 10000 nM.

Turning to `Cc1c(CN2CCN(c3ccccc3C#N)CC2)cc(C(=O)N2CCN(c3cccnn3)CC2)n1C` [Example I-16], the IC50 was 1000 to 3000 nM in assay [1] and greater than 10000 nM in assay [2].
